Where “and” joins values, the source holds several entries; their conditions need not be identical. Identical values can stand only once. Entries after “also recorded” stand apart in the source; their conditions may differ.
How the values were obtained:
Type in all cases: in vivo, mouse
[1] = tested on: C57Bl/6J mice; experiment: Western diet model: fibrosis by Sirius red whole-section-scanning morphometric image analysis; conditions: summary statement
Experimental: (§1) Studies were performed in male C5713L/6J mice (Jackson Laboratories, Bar Harbor Me.). Six groups were studied (n=3-5, see FIG. 1) with 4 mice per group at the outset, except for group 2, which was started with n=5; 1 mouse died in group 1. Groups 1, 2, and 3 received the Western diet for 9.5 months; during the last 2.5 months of the 9.5 months, group 2 received SR141716 10 mg/kg/day i.g., and group 3 received D-4F, 125 μg/mouse/day, in the drinking water. Groups 4, 5, and 6 received the Western diet for 7 months followed by standard chow for 2.5 months; during the 2.5 months on standard chow, group 5 received SR141716 and group 6 received D-4F as described for groups 2 and 3, respectively. Additional control groups were studied: 6-month old C57Bl/6J mice as age-matched controls (n=5) and C57Bl/6J mice that received the Western diet for 6 months (n=6).
Sirius red staining was performed by the Morphology core of the USC-UCLA Research Center for Alcoholic Liver and Pancreatic Diseases. α-Smooth muscle actin.
Tissue sections stained with Sirius red were scanned by a third-generation Automated Cellular Imaging System (ACIS III), a highly automated microscope-based digital imaging system (Carl Zeiss MicroImaging AIS Inc., Aliso Viejo Calif.). The color of the Sirius red staining in the digitized tissue sections was determined and applied to a pre-existing algorithm that provides the area of a target color in μm^2. The outline of each digitized tissue section was manually traced using the computer's mouse. Areas of large portal tracts and central veins were also outlined manually. The total area (μm^2) of each tissue section and of the total area of large portal tracts and central veins were determined by the image analysis system. The area of fibrosis was calculated as [total area stained by Sirius red minus perivascular staining] as a percentage of the size of the tissue section. This method has the advantage of scanning the entire section, rather than measuring fibrosis in randomly chosen fields.

[2] = tested on: C57Bl/6J mice; experiment: Western diet model: liver histology, assessment of steatosis and inflammation; conditions: for Fatty Change Degree of fat / Fatty Change Type (predominant type) / Inflammatory Clusters: individual mice
Experimental: as §1
The slides were coded, without the pathologist knowing the specific treatment group that the slides represented. The histology was graded according to a number of histologic features. The degree of fat was graded as to the approximate percentage of hepatocytes containing fat: 0, absent; +/−, less than 5%; 1+, 5-25%; 2+. 26-50%; 3+, 51-75%; 4+, >75%. The fat was also assessed as to whether it was totally macrovesicular, predominantly macrovesicular, totally microvesicular, predominantly microvesicular, or mixed macro- and microvesicular. In addition, the zone was assessed as to whether the fat was perivenular, periportal, diffuse, or focal. Inflammation was graded as absent, scanty (1 to 3 foci/slide), present (scattered, with 4 to 10 foci/slide), present + (scattered, >10 foci/slide but not numerous), and present ++ (numerous). The type of inflammation was graded as totally mononuclear, predominantly mononuclear, totally neutrophilic, predominantly neutrophilic, and mixed mononuclear-neutrophilic. The hydropic change of hepatocytes was graded as absent, mild, and moderate/severe, with the location noted as perivenular, focal or diffuse.

[3] = tested on: C57Bl/6J mice; experiment: Western diet model: biochemical findings and liver and body weights; conditions: for GSH / TBARS: liver; for ALT / AST / Adiponectin / Cholesterol / Glucose / Insulin / Leptin / Triglycerides: serum
Experimental: SR141716 was a kind gift from Sanofi-Aventis, France. SR141716 was dissolved in water with 0.1% Tween and given daily by gavage for 10 weeks. D-4F is an 18-mer of D-amino acids (Ac-D-W-F-K-A-F-Y-D-K-V-A-E-K-F-K-E-A-F-NH2)^4 (SEQ ID NO: 1) that was commercially synthesized (A & A Laboratories, San Diego Calif.) with 80% purity. D-4F was dissolved in the drinking water at a concentration of 60 μg/ml water for a calculated dose corrected for drug purity of 125 μg D-4F/mouse/day.
The high fat diet used was the RD “Western diet” (Research Diets, D12079B), which contains 41% of calories from fat, 43% calories from carbohydrate, and 17% of calories from protein); this diet was designed to approximate the “typical” human diet of North America and Europe.
as §1
Serum aspartate amino transferase (AST) and alanine aminotransferase (ALT) were measured with the Infinity AST and ALT liquid assay reagent (Thermo Electron Corporation, Louisville Colo., cat #TR70121 and TR71121). Serum triglycerides and cholesterol were measured with the Infinity cholesterol assay reagent (Thermo Electron Corporation, Louisville Colo., cat #TR22321 and TR13315). Serum glucose was measured with the Glucose (HK) assay kit (Sigma, St. Louis, Mo., cat #GAHK-20). Serum insulin was measured with the Mercodia Ultrasensitive mouse insulin ELISA kit (ALPCO Diagnostics, Salem N.H., cat #10 1150-01). The homeostasis model assessment insulin resistance index (HOMA-IR) was calculated as [fasting glucose (mmol/liter)*fasting insulin (microunits/ml)]/22.5^17, 18. Serum leptin was measured with the TiterZyme EIA mouse leptin kit (Assay Designs Inc, Ann Arbor Mich., cat #900-019). Serum adiponectin was measured with the mouse adiponectin kit (Biovendor LLC, Candler N.C., cat #RD 293023100). Thiobarbituric acid reactive substance (TBARS) was measured as previously described^19, 20; in brief, liver was homogenized and diluted 1:1 in 10% ice cold trichloroacetic acid. 0.5 ml supernatant or of a standard solution of 1,1,3,3-tetraethoxypropane was mixed with 0.5 ml of 0.6% (w/v) 4,6-dihydroxy-2-thiopyrimidine. The solution was boiled for 30 min, cooled and centrifuged. Absorbance was measured at 532 nm with a Shimadzu TV-2101 PC spectrophotometer. To measure hepatic glutathione (GSH), liver was homogenized and diluted 1:1 in 10% ice cold trichloroacetic acid. GSH in the supernatant was measured according to the recycling assay of Tietze^21.

[4] = 7 months Western diet followed by 2.5 months Western diet + drug
[5] = 7 months Western diet followed by 2.5 months chow + drug

Structure (SMILES): Cc1c(C(=O)NN2CCCCC2)nn(-c2ccc(Cl)cc2Cl)c1-c1ccc(Cl)cc1 [SR141716, reference compound]
- progression of fibrosis after onset of steatohepatitis [1]: prevented progression of fibrosis
- Fatty Change Degree of fat [2, 4]: 4 (2×) and 3 and 1
- Fatty Change Type (predominant type) [2, 4]: Microvesicular; also recorded: Mixed; also recorded: Macrovesicular
- Inflammatory Clusters [2, 4]: 1 and 2 (4×)
- Fatty Change Degree of fat [2, 5]: 3 (2×) and 2 and 1
- Fatty Change Type (predominant type) [2, 5]: Microvesicular
- Inflammatory Clusters [2, 5]: 2 (3×) and 1
- steatohepatitis (summary) ([2]; summary statement): improved steatohepatitis
- Body weight [3, 4]: 29.1 ± 2.0 g
- HOMA-IR [3, 4]: 8.8 ± 3.6
- Liver weight [3, 4]: 1.54 ± 0.1 g
- Body weight [3, 5]: 30.2 ± 1.1 g
- HOMA-IR [3, 5]: 6.1 ± 2.0
- Liver weight [3, 5]: 1.39 ± 0.1 g
- GSH [3, 4]: 68.7 ± 2.0 nmole/mg protein
- TBARS [3, 4]: 17.1 ± 0.7 nmol/g tissue
- GSH [3, 5]: 73.8 ± 2.2 nmole/mg protein
- TBARS [3, 5]: 18.7 ± 1.09 nmol/g tissue
- ALT [3, 4]: 54.8 ± 12.4 U/L
- AST [3, 4]: 109.6 ± 10.4 U/L
- Adiponectin [3, 4]: 18.4 ± 1.8 µg/mL
- Cholesterol [3, 4]: 112.2 ± 13.7 mg/dL
- Glucose [3, 4]: 136.3 ± 29.2 mg/dL
- Insulin [3, 4]: 0.81 ± 0.15 ng/mL
- Leptin [3, 4]: 2.36 ± 1.05 ng/mL
- Triglycerides [3, 4]: 33.1 ± 2.2 mg/dL
- ALT [3, 5]: 59.1 ± 11.4 U/L
- AST [3, 5]: 69.1 ± 5.5 U/L
- Adiponectin [3, 5]: 16.5 ± 2.0 µg/mL
- Cholesterol [3, 5]: 105.3 ± 4.7 mg/dL
- Glucose [3, 5]: 96.2 ± 3.0 mg/dL
- Insulin [3, 5]: 0.89 ± 0.27 ng/mL
- Leptin [3, 5]: 1.95 ± 0.72 ng/mL
- Triglycerides [3, 5]: 47.0 ± 2.2 mg/dL
- body weight (summary) ([3]; summary statement): promoted weight loss
- insulin resistance (summary) ([3]; summary statement): decreased insulin resistance
- leptin levels (summary) ([3]; summary statement): decreased leptin levels

— patent publication US20090197811A1, “ORALLY ADMINISTERED PEPTIDES TO IMPROVE OR PREVENT HEPATIC FIBROSIS” (University of Southern California, priority 2007, published 2009)
